The numbers were not newly measured in patent US9370492B2, “Solid pharmaceutical dosage forms comprising bisphosphonates and modified amino acid carriers” (EMISPHERE TECHNOLOGIES, INC., priority 2005, dated 2016), which cites them from elsewhere.

Where a name gives a salt, the structure may show the parent alone.

With `CCCCCN(C)CCC(O)(P(=O)(O)O)P(=O)(O)O` [Ibandronate sodium, 3-(N-methyl-N-pentyl)amino-1-hydroxypropane-1,1-diphosphonic acid, monosodium salt, monohydrate], the “solubility in organic solvents” value (organic solvents) is recorded as “practically insoluble”. Also, the solubility in water entry (water) is given as “freely soluble”.
